The values below come from US10780092B2, “Fused pyrazine derivatives useful as soluble guanylate cyclase stimulators” (Merck Sharp & Dohme Corp., priority 2016, dated 2020).

Test [1] deals with hypoxia-induced pulmonary hypertension in rat. Description: Acute efficacy in hypoxia-induced pulmonary hypertension in rat following intratracheal (IT) administration. The format is in vivo. The settings on record: decrease in SBP at dose giving decrease in PAP ≥15 mmHg. The text has this: Acute Efficacy in Hypoxia-Induced Pulmonary Hypertension in Rat Following Intratracheal (IT) Administration Charles River Sprague-Dawley (CD) male rats weighing approximately 350 g were implanted with HD-S21 dual pressure telemetry transmitters (Data Sciences International (DSI)) into the pulmonary artery and femoral artery. This transmitter enables simultaneous measurement of both pulmonary and systemic hemodynamic parameters in the same animal. After a 7-10 day post-operative recovery period, animals were subjected to a normobaric hypoxic (10% oxygen) environment using a Higher Peak Mountain Air Generator (MAG-10) connected to a modified rodent cage via a fitted inlet port. Oxygen (at 10%), temperature, humidity, and CO2 were controlled within normal range and animals were maintained on a 12 hour light-dark cycle with ad libitum access to food and water. After two weeks exposure to 10% O2 hypoxic environment, systolic pulmonary arterial pressure readings increased from ˜25 mmHg to greater than 50 mmHg. Using a 48 hour baseline average, animals with readings between 50-110 mmHg (standard deviation of less than 10 mmHg) and minimal changes in systolic systemic blood pressure were enrolled for study. Animals were utilized for up to 2 studies per week for 4 weeks with a minimum of 2 days washout between doses of test agent. Compound or vehicle was administered intra-tracheally under light isoflurane anesthesia (5% in oxygen; flow rate 2.0 L/min for 3 minutes). Once anesthetized, rats were placed on an angled intubation stand in supine position and the trachea visualized using a small laryngoscope. Animals then received either 0.5 mL/kg of vehicle or 0.5 mL/kg vehicle containing compound intra-tracheally delivered via microsprayer by use of a Penn-Century Microsprayer® needle 3″ (Model IA-1B-GP) attached to a 1 mL high pressure syringe (Penn Century-Model B—SYR-PL1000) (Penn-Century, Philadelphia, Pa.). The Microsprayer® tip was inserted into the trachea up to the point at which the bend in the needle is close to the tip of the snout, which positions the tip of the Microsprayer® in front of the carina (bifurcation of trachea at the bronchi). After dose delivery the animal is placed on its back in the home cage for recovery. Hemodynamic measurements were continuously recorded and readings consolidated to hourly moving averages. Each animal received a vehicle on Day 1 followed by vehicle or test agent on Day 2. Change from vehicle baseline was calculated by subtracting the hourly Day 1 vehicle response from the hourly Day 2 response and treatment group data was expressed as mean±SEM. Decreases of systolic blood pressure (SBP) and systolic pulmonary arterial pressure (PAP) were measured at a particular IT dose (mpk milligrams per kilogram) for the following Example compounds. Compounds in the Table 13 achieved a minimum decrease in PAP of ≥15 mmHg for the corresponding decrease in SBP listed.

In a further test the target is sGC α1/β1 heterodimer (Homo sapiens (Human), UniProt Q02108+Q02153). The test can be described thus: Cell-based sGC functional assay (CASA assay), cGMP by HTRF. The settings on record: CHO-K1/sGC cells; for Emax: CHO-K1, cGMP production as percentage of maximum of compound A (set to 100%), read-out: % Activation; for EC50: inflection point of cGMP production, 4P fit, read-out: IP. An outline of the steps:
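cGMP made in CHO-K1/sGC (human α1/β1) cells is read by HTRF after compound treatment for 1 hr at 37° C, following 30 min at 25° C with or without 1 μM DETA-NO; IBMX 0.5 mM present. Values are % of standard compound maximum; 4P fit.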
(In general: In TR-FRET formats the signal depends on donor and acceptor labels being close together.)

Test [2] has as its target human recombinant sGC enzyme (Homo sapiens (Human), UniProt Q02108+Q02153). Description: SEC competition binding assay with [3H] Compound B radioligand. Conditions: displacement of 1.6 nM [3H] Compound B, 24 h at 37° C. In short, it runs like this:
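Competition format: [3H] Compound B (1.6 nM) displaced from human recombinant sGC over 24 h at 37° C. in triethanolamine pH 7.4 buffer with MgCl2, BSA, DTT, 300 μM DETA/NO and 400 μM GTP (1% DMSO). Gel-filtration eluates counted by liquid scintillation; 1 μM Compound B defined non-specific binding; Ki by one-site fit.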

Regarding `CC1(c2cc(O)c(Cl)cn2)C(=O)Nc2nc(-c3cn4ccnc4c(Cc4cccc(F)c4)n3)nc(N)c21` (stereo not shown) [Example 51-B, 4-Amino-5-(5-chloro-4-hydroxypyridin-2-yl)-2-{8-[(3-fluorophenyl)methyl]imidazo[1,2-a]pyrazin-6-yl}-5-methyl-5,7-dihydro-6H-pyrrolo[2,3-d]pyrimidin-6-one], the “Category (decrease in SBP)” value in test [1] (IT dose 0.03 mpk) was “A (decrease in SBP 0-5 mmHg)”. Besides, at sGC α1/β1 heterodimer, the Emax was 88% and the EC50 came out at 1020 nM. The Ki (in general, the dissociation constant of the complex between target and ligand, obtained from inhibition or displacement) in test [2] is 0.874 nM.
As to `CC(C)CCc1nc(-c2nc(N)c3c(n2)NC(=O)C3(C)c2ccc(Cl)c(O)c2)cn2ccnc12` (stereo not shown) [Example 25-A, 4-Amino-5-(4-chloro-3-hydroxyphenyl)-2-(8-isopentylimidazo[1,2-a]pyrazin-6-yl)-5-methyl-5,7-dihydro-6H-pyrrolo[2,3-d]pyrimidin-6-one], in test [1] (IT dose 0.03 mpk), the “Category (decrease in SBP)” value was “B (decrease in SBP 5-10 mmHg)”. In addition, on sGC α1/β1 heterodimer, the Emax was determined as 117% and the EC50 worked out at 223 nM. Besides, in test [2], the Ki worked out at 0.252 nM.
`CC1(c2ccc(Cl)c(O)c2)C(=O)Nc2nc(-c3cn4ccnc4c(CC4CCCCC4)n3)nc(N)c21` (stereo not shown) [Example 14-A, 4-Amino-5-(4-chloro-3-hydroxyphenyl)-2-(8-(cyclohexylmethyl)imidazo[1,2-a]pyrazin-6-yl)-5-methyl-5,7-dihydro-6H-pyrrolo[2,3-d]pyrimidin-6-one]: the “Category (decrease in SBP)” value in test [1] (IT dose 0.01 mpk) is on record as “A (decrease in SBP 0-5 mmHg)”. In addition, at sGC α1/β1 heterodimer, the Emax turned out to be 68% and the EC50 was 144 nM. Besides, the Ki in test [2] amounted to 0.156 nM.
`CC1(c2ccc(O)c(Cl)c2)C(=O)Nc2nc(-c3cn4ccnc4c(Cc4ccccc4F)n3)nc(N)c21` (stereo not shown) [Example 28-B, 4-Amino-5-(3-chloro-4-hydroxyphenyl)-2-{8-[(2-fluorophenyl)methyl]imidazo[1,2-a]pyrazin-6-yl}-5-methyl-5,7-dihydro-6H-pyrrolo[2,3-d]pyrimidin-6-one]: in test [1] (IT dose 0.01 mpk), the “Category (decrease in SBP)” value is reported as “B (decrease in SBP 5-10 mmHg)”. At sGC α1/β1 heterodimer, the Emax came to 141% and the EC50 worked out at 433 nM. For the same molecule, the Ki in test [2] worked out at 0.283 nM.
With `CC1(c2ccc(O)c(F)c2)C(=O)Nc2nc(-c3cn4ccnc4c(CCC(F)(F)C(F)(F)F)n3)nc(N)c21` (racemic) [Example 117-B, 4-Amino-5-(3-fluoro-4-hydroxyphenyl)-5-methyl-2-(8-(3,3,4,4,4-pentafluorobutyl)-imidazo[1,2-a]pyrazin-6-yl)-5,7-dihydro-6H-pyrrolo[2,3-d]pyrimidin-6-one], the “Category (decrease in SBP)” value in test [1] (IT dose 0.3 mpk) is reported as “C (decrease in SBP >10 mmHg)”. Moreover, on sGC α1/β1 heterodimer, the Emax came out at 94% and the EC50 was 109 nM. Further, the Ki in test [2] worked out at 8.55 nM.
On to `CC1(c2cc(O)ccn2)C(=O)Nc2nc(-c3cn4ncnc4c(CC4CCCCC4)n3)nc(N)c21` (stereo not shown) [Example 109-A, 4-Amino-2-(8-(cyclo-hexylmethyl)-[1,2,4]-triazolo[1,5-a]pyrazin-6-yl)-5-(4-hydroxy-pyridin-2-yl)-5-methyl-5,7-dihydro-6H-pyrrolo-[2,3-d]pyrimidin-6-one], for which the “Category (decrease in SBP)” value in test [1] (IT dose 0.03 mpk) was “C (decrease in SBP >10 mmHg)”. At sGC α1/β1 heterodimer, the Emax was 97% and the EC50 was determined as 221 nM. Besides, the Ki in test [2] was 0.634 nM.
For `CC1(c2cc(O)c(Cl)cn2)C(=O)Nc2nc(-c3cn4ncnc4c(CC4CCCCC4)n3)nc(N)c21` (stereo not shown) [Example 105-B, 4-Amino-5-(5-chloro-4-hydroxypyridin-2-yl)-2-(8-(cyclohexylmethyl)-[1,2,4]triazolo[1,5-a]pyrazin-6-yl)-5-methyl-5,7-dihydro-6H-pyrrolo[2,3-d]pyrimidin-6-one], in that order: “B (decrease in SBP 5-10 mmHg)”, 108%, 138 nM and 0.213 nM.
For `CC1(c2cc(O)c(C#N)c(F)c2)C(=O)Nc2nc(-c3cn4ccnc4c(Cc4ccccc4F)n3)nc(N)c21` (stereo not shown) [Example 23-B, 4-(4-Amino-2-{8-[(2-fluorophenyl)methyl]imidazo[1,2-a]pyrazin-6-yl}-5-methyl-6-oxo-6,7-dihydro-5H-pyrrolo[2,3-d]pyrimidin-5-yl)-2-fluoro-6-hydroxybenzonitrile] the same measures were “A (decrease in SBP 0-5 mmHg)”, 76%, 3110 nM and 0.216 nM.
Consider `CC1(c2ccc(F)c(O)c2)C(=O)Nc2nc(-c3cn4ccnc4c(Cc4ccccc4F)n3)nc(N)c21` (stereo not shown) [Example 13-B, 4-Amino-5-(4-fluoro-3-hydroxyphenyl)-2-{8-[(2-fluorophenyl)methyl]imidazo[1,2-a]pyrazin-6-yl}-5-methyl-5,7-dihydro-6H-pyrrolo[2,3-d]pyrimidin-6-one], for which the “Category (decrease in SBP)” value in test [1] (IT dose 0.01 mpk) was “A (decrease in SBP 0-5 mmHg)”. In addition, at sGC α1/β1 heterodimer, the Emax turned out to be 100% and the EC50 came to 821 nM. The Ki in test [2] turned out to be 0.154 nM.
Take `CC1(c2cccc(O)c2)C(=O)Nc2nc(-c3cn4ncnc4c(CCC(F)(F)C(F)(F)F)n3)nc(N)c21` (stereo not shown) [Example 78-B, 4-Amino-5-(3-hydroxyphenyl)-5-methyl-2-(8-(3,3,4,4,4-pentafluorobutyl)-[1,2,4]triazolo[1,5-a]pyrazin-6-yl)-5,7-dihydro-6H-pyrrolo[2,3-d]pyrimidin-6-one]: the “Category (decrease in SBP)” value in test [1] (IT dose 0.3 mpk) is recorded as “C (decrease in SBP >10 mmHg)”. Further, on sGC α1/β1 heterodimer, the Emax was 93% and the EC50 was found to be 202 nM. Moreover, the Ki in test [2] stood at 8.88 nM.
For the molecule `CC1(c2cc(O)c(C#N)c(F)c2)C(=O)Nc2nc(-c3cn4ccnc4c(Cc4cc(F)cc(F)c4)n3)nc(N)c21` (stereo not shown) [Example 38-B, 4-(4-Amino-2-{8-[(3,5-difluorophenyl)methyl]imidazo[1,2-a]pyrazin-6-yl}-5-methyl-6-oxo-6,7-dihydro-5H-pyrrolo[2,3-d]pyrimidin-5-yl)-2-fluoro-6-hydroxybenzonitrile], in test [1] (IT dose 0.03 mpk), the “Category (decrease in SBP)” value is recorded as “A (decrease in SBP 0-5 mmHg)”. Further, on sGC α1/β1 heterodimer, the Emax stood at 92% and the EC50 amounted to 720 nM. In test [2], the Ki was 0.41 nM.
For `CC1(c2ccc(O)c(F)c2)C(=O)Nc2nc(-c3cn4ccnc4c(Cc4ccc(F)cc4)n3)nc(N)c21` (stereo not shown) [Example 29-B, 4-Amino-5-(3-fluoro-4-hydroxyphenyl)-2-{8-[(4-fluorophenyl)methyl]imidazo[1,2-a]pyrazin-6-yl}-5-methyl-5,7-dihydro-6H-pyrrolo[2,3-d]pyrimidin-6-one] the same measures were “C (decrease in SBP >10 mmHg)”, 80%, 67 nM and 0.291 nM.
For `CC1(c2cc(O)c(Cl)cn2)C(=O)Nc2nc(-c3cn4ccnc4c(CC4CCCCC4)n3)nc(N)c21` (stereo not shown) [Example 93-B, 4-Amino-5-(5-chloro-4-hydroxypyridin-2-yl)-2-(8-(cyclohexylmethyl)imidazo[1,2-a]pyrazin-6-yl)-5-methyl-5,7-dihydro-6H-pyrrolo[2,3-d]pyrimidin-6-one] the same measures were “A (decrease in SBP 0-5 mmHg)”, 98%, 683 nM and 0.374 nM.
